Reference: paper PMC11194091 (2024)

What was measured:
[1] = tested on: (G2C4)2 (RNA, repeat) GGCCCCGGCCCC; assay: circular dichroism; details: 100 mM NaCl; 10 mM sodium cacodylate pH 7.0, room temperature; 2.5 μM RNA, 25 μM ANP77
[2] = tested on: (G2C4)2 (RNA, repeat) GGCCCCGGCCCC; assay: ITC; details: 100 mM NaCl; 10 mM sodium cacodylate pH 6.0, 25°C; sequential binding sites model; site 1 of 2
[3] = tested on: G2C4 RNA (RNA, triplex) GGCCCC; assay: ITC; details: 100 mM NaCl; 10 mM sodium cacodylate pH 6.0, 25°C; one set of sites model
[4] = tested on: RNA oligomer having five G2C4 repeats (RNA, repeat) GGCCCCGGCCCCGGCCCCGGCCCCGGCCCC; assay: circular dichroism; details: 100 mM NaCl; 10 mM sodium cacodylate pH 7.0, room temperature; 2.5 μM RNA, 25 μM ANP77
[5] = tested on: G2C4 RNA (RNA, triplex) GGCCCC; assay: CSI-TOF mass spectrometry; details: 250 mM ammonium acetate; water/methanol 8:2, -10°C spray; 20 μM RNA, 50 μM ANP77; complexes with double-stranded form
[6] = tested on: G2C4 RNA (RNA, triplex) GGCCCC; assay: DSC; details: 100 mM NaCl; 10 mM sodium cacodylate pH 6.0; 300 μM ANP77, 300 μM RNA; triplex melting 38.1 to 41.5; derived from two Tm
[7] = tested on: G2C4 RNA (RNA, triplex) GGCCCC; assay: X-ray crystal structure; details: 80 mM NaCl; 40 mM sodium cacodylate pH 6.0, 45% MPD, 12 mM spermine, 19°C; 1.1 Å

binding [1]: yes | Kd [2]: 0.976 ± 0.377 µM | Kd [3]: 7.9 ± 1.0 µM | binding [4]: yes | binding [5]: yes | ΔTm1 (shift in Tm1) [6]: 3.4 °C | binding [7]: yes
SMILES: NCCCNC(=O)C(Cc1ccc2ccc(N)nc2n1)Cc1ccc2ccc(N)nc2n1
